Test results as given in patent US4434290A, “Pyrido (4,3-B) carbazoles substituted in the 1 position by a polyamine chain” (priority 1978, dated 1984).
Where “and” joins values, the source holds several entries; their conditions need not be identical. Identical values can stand only once.

Legend:
Friend's virus (VFA) = test: Anemia inducing Friend's virus, dose/effect relationship (Table XIX); type: in vivo, mice; conditions: for Death interval / ILS % / Mean survival time: VFA 1/800, D+1; for Surviving mice: groups of 10 mice
From the text: The following experiments related to the treatment of mice inoculated by the virus of Friend's leukemia.
In these experiments DBA2, male mice, aged from 2 to 3 months, of weight around 20 g, were used.
An anemia inducing strain of Friend's virus (VFA) maintained for several years in the laboratory was used. The viral stock was constituted by an acellular supernatant liquor obtained by the centrifugation of a ground product of leukemic spleens, carried out in an 0.5 M PBS-saccharose solution. The assay of the stock was done in vivo by the method described by JASMIN et al [J. Nat. Cancer Inst. 1974,53, 469-474]. The measurement is expressed in SD50 (50% spleen enlarging dose).
Experimental groups of 10 mice were used, into which the VFA virus (dilution 1/800-% of leukemias=100%) was injected on day Do. The compound 27 according to the invention was then injected at day D+1 at various doses according to the groups and the death interval, the mean survival time and the percentage of increased life span were determined.

L1210 cells = test: In vitro cytotoxic study on leukemia L1210 cells, complete inhibition of growth (Table XVI); type: cell-based
Description: Cytotoxic "in vitro" study on hamster cells on leukemia L1210 cells of the serie.
After 5 hours, the cells were attached to a plastic support and the products to be tested whose solutions had been formed in water or in DMSO (dimethylsulphoxide) if the product was little soluble in water, was added. In the latter case a control was carried out with the same final concentration of DMSO in the culture medium.
The state of the cells was examined 24, 48 and 72 hours later.
In the case of the L1210 cells, the tests were carried out in a medium gelled with agarose, the L1210 cells growing in suspension.

leukemia L1210 [1] = test: Leukemia L1210 in vivo, dose/effect relationship (Table XIV); set-up: species or system mice; conditions: for Death interval / ILS % / Mean survival time: 10^5 cells; for Death interval / ILS % / Mean survival time / Surviving mice: D+1; for Surviving mice: groups of six mice
Description: The properties were determined by the curative action inoculated experimental leukemia L1210. This leukemia was maintained on B6 D2 Fl (C 57 Bl/6×DBA/2) Fl mice in the proportion of 6 or 10 mice per experimental batch. The compounds to be tested were injected by the intraperitoneal route one or several days after inoculation of the cells (1 injection only). The death interval was determined, the first figure of the Table indicating the date of the first mouse death and the second the date of the last mouse death. The mean survival time was also measured (MST). A characteristic value is the percentage of increased life span (ILS %). This value (Cancer. Res. 1971, 31, 1883-1887) is the ratio: [formula] where S^t =survival of treated animals and
The study was carried out on experimental groups of six mice by the previously defined method. 10^5 cells were injected at day Do. […] The death interval was determined, the mean survival time was measured (MST) and the percentage of increased life span was calculated (ILS %) by the above-defined formula.

[2] = system: cells of viro-induced leukemia of Friend; test: In vitro cytotoxic study on cells of the Friend leukemia of the mouse (Table XV); type: cell-based
Description: "In vitro" cytotoxic study of the compounds of the invention on the cells of viro-induced leukemia of Friend in the mouse [J. Exp. Med. 1957, 105, p. 307-318].
The cells were grown in suspension in the RPMI 1640 medium [catalogue of GIBCO Bio-Cult-Ltd, Washington Road Sandyford Industrial Estate Paisley PA3 4EP Renfrewshire Scotland] supplement with 20% of embryonary calf serum, with penicillin and with streptopycin. The duplication time of the culture was about 11 hours. The growth factor is equal to 1 or very close to 1 (all the cells multiplying).
The cultures were seeded at times t=0 at the concentration of 2×10^5 cells per ml in Falcon dishes containing 4 ml of medium. 24 hours later, the product to be tested (in solution, in acetic water) was added, at the moment when the cells were in the exponential growth phase. 24 hours after the addition of the product, the cells were counted and the percentage of living cells determined by an exclusion test with trypan blue.

leukemia L1210 [3] = test: Leukemia L1210 in vivo, measurement of survival time (Table XII); set-up: species or system B6 D2 Fl (C 57 Bl/6×DBA/2) Fl mice; MST: unit not given here; conditions: for Death interval (mice) / ILS % / MST / Surviving mice: i.p.
Description: The following pharmacological trials relate to the effects of the compounds of the invention on leukemia L1210 in vivo.
G. Proc. Nat. Acad. Sci. 1972, 69, 1042-1047 and Schepartz S., Screening 1971, Cancer Chemother. Part 3; Vol. 2, p. 3].
The properties were determined by the curative action inoculated experimental leukemia L1210. This leukemia was maintained on B6 D2 Fl (C 57 Bl/6×DBA/2) Fl mice in the proportion of 6 or 10 mice per experimental batch. The compounds to be tested were injected by the intraperitoneal route one or several days after inoculation of the cells (1 injection only). […] The death interval was determined, the first figure of the Table indicating the date of the first mouse death and the second the date of the last mouse death. The mean survival time was also measured (MST). A characteristic value is the percentage of increased life span (ILS %). This value (Cancer. Res. 1971, 31, 1883-1887) is the ratio: [formula] where S^t =survival of treated animals and
S^c =survival of control animals.

[4] = experimental group of six mice, 15 mg/kg, day +1, 15 mg/kg
[5] = experimental group of six mice, 20 mg/kg, day +1

CCN(CC)CCCNc1nccc2c(C)c3[nH]c4ccc(OC)cc4c3c(C)c12 [Compound 27]
deaths through toxicity (Friend's virus (VFA); 15 mg/kg, group of 10 mice): Two
dose/effect relationship (Friend's virus (VFA); 5-15 mg/kg): proportional to the inoculated dose
Death interval (Friend's virus (VFA); 5 mg/kg): 25-36
ILS % (Friend's virus (VFA); 5 mg/kg): 31.78%
Mean survival time (Friend's virus (VFA); 5 mg/kg): 31.1
Death interval (Friend's virus (VFA); 10 mg/kg): 32-64
ILS % (Friend's virus (VFA); 10 mg/kg): 103%
Mean survival time (Friend's virus (VFA); 10 mg/kg): 45.8
Death interval (Friend's virus (VFA); 15 mg/kg): 33-63
Mean survival time (Friend's virus (VFA); 15 mg/kg): 49.9
ILS % (Friend's virus (VFA); 15 mg/kg, toxic deaths excluded): 122%
Surviving mice (Friend's virus (VFA); 5 mg/kg): 0 mice
Surviving mice (Friend's virus (VFA); 10 mg/kg): 0 mice
Surviving mice (Friend's virus (VFA); 15 mg/kg): 0 mice
IC (100 (complete growth inhibition, minimal)) (L1210 cells; Mus musculus, L1210, medium gelled with agarose, read-out: Minimal dose leading to a complete inhibition of the growth): 0.6 µM
activity compared with the reference BD40 (L1210 cells; summary of Table XVI): almost as active as the reference dipyrido-indole (BD40)
dose/effect relationship (leukemia L1210 [1]; 5-20 mg/kg, day D+1): proportional to the dose inoculated
Death interval (leukemia L1210 [1]; 5 mg/kg): 16-24
ILS % (leukemia L1210 [1]; 5 mg/kg): 80.4%
Mean survival time (leukemia L1210 [1]; 5 mg/kg): 19.3
Death interval (leukemia L1210 [1]; 10 mg/kg): 14-21
ILS % (leukemia L1210 [1]; 10 mg/kg): 57%
Mean survival time (leukemia L1210 [1]; 10 mg/kg): 16.8
Death interval (leukemia L1210 [1]; 15 mg/kg): 13-31
ILS % (leukemia L1210 [1]; 15 mg/kg): 96.3%
Mean survival time (leukemia L1210 [1]; 15 mg/kg): 21
Death interval (leukemia L1210 [1]; 20 mg/kg): 15-25
ILS % (leukemia L1210 [1]; 20 mg/kg): 75.7%
Mean survival time (leukemia L1210 [1]; 20 mg/kg): 18.8
Surviving mice (leukemia L1210 [1]; 5 mg/kg): 0 mice
Surviving mice (leukemia L1210 [1]; 10 mg/kg): 0 mice
Surviving mice (leukemia L1210 [1]; 15 mg/kg): 0 mice
Surviving mice (leukemia L1210 [1]; 20 mg/kg): 1 mice
IC50 ([2]; Mus musculus, 24 h, read-out: LD 50 (50% lethal dose)): 450 nM
IC100 ([2]; Mus musculus, 24 h, read-out: LD 100 (100% lethal dose)): 1.2 µM
LD 50 HUM / LD 50 product ([2]; ratio to reference HUM): 0.65
Death interval (mice) (leukemia L1210 [3]; 10^5 cells, 10 mg/kg, day +3): 12-31
ILS % (leukemia L1210 [3]; 10^5 cells, 10 mg/kg, day +3): 49.4%
MST (leukemia L1210 [3]; 10^5 cells, 10 mg/kg, day +3): 17.3
Death interval (mice) (leukemia L1210 [3]; 10^5 cells, 10 mg/kg, day +4): 16-27
ILS % (leukemia L1210 [3]; 10^5 cells, 10 mg/kg, day +4): 92.3%
MST (leukemia L1210 [3]; 10^5 cells, 10 mg/kg, day +4): 20
Death interval (mice) (leukemia L1210 [3]; 10^5 cells, 15 mg/kg, day +1): 17-43
ILS % (leukemia L1210 [3]; 10^5 cells, 15 mg/kg, day +1): 128.6%
MST (leukemia L1210 [3]; 10^5 cells, 15 mg/kg, day +1): 24
Death interval (mice) (leukemia L1210 [3]; 10^5 cells, 20 mg/kg, day +3): 10-30
ILS % (leukemia L1210 [3]; 10^5 cells, 20 mg/kg, day +3): 42.7%
MST (leukemia L1210 [3]; 10^5 cells, 20 mg/kg, day +3): 16.5
Death interval (mice) (leukemia L1210 [3]; 10^5 cells, 20 mg/kg, day +4): 17-23
ILS % (leukemia L1210 [3]; 10^5 cells, 20 mg/kg, day +4): 94.2%
MST (leukemia L1210 [3]; 10^5 cells, 20 mg/kg, day +4): 20.2
Surviving mice (leukemia L1210 [3]; experimental group of six mice, 15 mg/kg, day +1): 4 mice
Death interval (mice) (leukemia L1210 [3]; [4]): 19-35 and 20-32
MST (leukemia L1210 [3]; [4]): 25 and 26
Death interval (mice) (leukemia L1210 [3]; [5]): 20-31
ILS % (leukemia L1210 [3]; [5]): 102.4%
MST (leukemia L1210 [3]; [5]): 25.5
Surviving mice (leukemia L1210 [3]; [5]): 4 mice
increase in the life span (ILS) (leukemia L1210 [3]; text: dose closest to the toxic dose, same conditions): 134%
